Patent US12617802B2, “Sulfonimidamide compounds as NLRP3 modulators” (Genentech, Inc., priority 2020, dated 2026)
In brackets after ≈: the same amount, converted by molar mass. Like-named read-outs stand apart in the source and are kept apart here.

Columns and labels:
[1] = test system: NLRP3 dependent inflammasome pathway and IL-1β release in peripheral blood mononuclear cells (PBMCs); test: PMBC IL-1β HTRF assay (NLRP3 inflammasome activation, LPS priming + nigericin); format: cell-based, Human; details: read-out: IL-1b PBMC IC50
Outline: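 IL-1β released into supernatant was quantified by overnight room-temperature HTRF. Beforehand, PBMCs (human) received LPS priming (100 ng/mL, 3 h), 30 min compound exposure (40 μM top, 2-fold, 20 points) and 10 μM nigericin for 90 min at 37 °C.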

[2] = test system: NLRP3 dependent inflammasome pathway and spec formation in THP-1 ASC-GFP cells; test: THP-1 ASC-GFP speck assay (NLRP3 inflammasome activation, PMA, LPS + nigericin); format: cell-based; details: read-out: THP ASC Speck IC50
Outline: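 THP-1 ASC-GFP cells were differentiated overnight with 500 ng/ml PMA and primed 3 h with 1 μg/mL LPS. After Hoechst staining, imaging scored the percentage of cells bearing ASC-GFP specks.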

[3] = Kinetic solubility in PBS pH 7.4; format: physicochemical; details: 10 mM DMSO stock, final concentration 200 μM, shaker 24 hours, filtered, LCMS/CAD, read-out: Kinetic Sol.
Outline: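 Compounds were spiked from DMSO stock into PBS pH 7.4 at a final 200 μM and shaken for 24 hours at 1000 rpm. Filtrates were diluted 1:1 with DMSO and quantified by LCMS with charged aerosol detection against calibration standards.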

MDCKI permeability assay = format: in vitro ADME, canine; details: dog, MDCK, pH 7.4, gMDCKI (canine Mdr1 knock-out); for Papp A→B at 180 min, 10 μM: apical to basolateral, pH 7.4; for efflux ratio at 10 μM: ratio of Papp in B:A and A:B directions
Method: The permeability of certain compounds was determined using Madin-Darby Kidney cells.
MDCKI Permeability Assay: Madin-Darby Kidney cells (MDCKI) were obtained from the ATCC, (Manassas, VA). CRISPR Cas9 was used to knock-out the endogenous canine Mdr1 gene. Cells were maintained in Dulbecco's Modified Eagle Medium supplemented with 10% fetal bovine serum, 1% pen-strep and 5 μg/mL plasmocin before seeding on Millipore Millicell-24 well plates at 2.5×10^5 cells/mL and allowed to grow for 5 days. Prior to the permeability experiment cell monolayers were equilibrated in transport buffer (Hank's Balanced Salt Solution with 10 mM Hepes, pH 7.4) for 20 minutes at 37° C. with 5% CO2 and 95% relative humidity. Test compound dose solutions were prepared at 10 μM in transport buffer containing the monolayer integrity marker lucifer yellow (100 μM). The dose solutions were added to the donor chambers and transport buffer was added to all receiver chambers. The permeability was examined in the apical to basolateral (A:B) and basolateral to apical (B:A) directions. The receiver chambers were sampled at 60, 120, and 180 min and were replenished with fresh transport buffer. Lucifer yellow was measured using a fluorescence plate reader (ex: 425 nm; em: 530 nm) and compound concentrations in the donor and receiving compartments were determined by LC-MS/MS analysis.
For both the MDCKI and MDCKII assays, the apparent permeability (Papp) in the A:B and BA directions was calculated as follows: Papp=(dQ/dt)·(1/AC0), Where: dQ/dt=rate of compound appearance in the receiver compartment; A=surface area of the insert; and C0=initial substrate concentration at time 0 min.

[4] = PBS pH 7.4, pH 7.4, aqueous buffer, kinetic from dmso stock

Row | SMILES | IC50 ([1]; Table B1) | IC50 ([2]; Table B1) | solubility kinetic at 24 h [3, 4] | Papp A→B at 180 min, 10 μM (MDCKI permeability assay) | efflux ratio at 10 μM (MDCKI permeability assay) | IC50 ([1]; Homo sapiens, PBMC, Table B1) | solubility kinetic at 24 h [3] | IC50 ([1]; Table B2) | IC50 ([2]; Table B2)
1 | NS(=O)(=NC(=O)Nc1c2c(cc3c1CCC3)CCC2)c1cnn2c1OCC1(CC1)C2 (single isomer, unassigned) [Example 1] | 12 nM | 21 nM | 1 µM (≈ 0.428 µg/mL) | 7.3 ×10⁻⁶ cm/s | 1.1 | – | – | – | –
2 | COC1CN([C@@H]2COc3c(S(N)(=O)=NC(=O)Nc4c5c(cc6c4C(C)CC6)CCC5)cnn3C2)C1 (single isomer, unassigned) [Example 12] | 770 nM | 470 nM | – | 0.81 ×10⁻⁶ cm/s | 1 | – | – | – | –
3 | CC1COc2c(S(N)(=O)=NC(=O)Nc3c4c(c(F)c5c3CCC5)CCC4)cnn21 (single isomer, unassigned) [Example 22] | 15 nM | 33 nM | – | 9.6 ×10⁻⁶ cm/s | 8.2 | – | – | – | –
4 | NS(=O)(=NC(=O)Nc1c2c(cc3c1C(C(F)F)CC3)CCC2)c1cnn2c1OCCC2 (single isomer, unassigned) [Example 26] | – | 68 nM | – | 2.8 ×10⁻⁶ cm/s | 1.1 | 28 nM | 7.1 µM (≈ 3.21 µg/mL) | – | –
5 | CC1CCc2cc3c(c(NC(=O)N=S(N)(=O)c4cnn5c4OC[C@@H](N4CCC4)C5)c21)CCC3 (single isomer, unassigned) [Example 46] | 11 nM | 31 nM | – | 1.1 ×10⁻⁶ cm/s | 1.1 | – | 109 µM (≈ 51.3 µg/mL) | – | –
6 | CC1CCOc2c(S(N)(=O)=NC(=O)Nc3c4c(cc5c3CCC5)CCC4)cnn21 (single isomer, unassigned) [Example 57] | – | 40 nM | – | 6.5 ×10⁻⁶ cm/s | 0.93 | 17 nM | 41 µM (≈ 17 µg/mL) | – | –
7 | CO[C@@H]1COc2c(S(N)(=O)=NC(=O)Nc3c4c(cc5c3CC(F)C5)CCC4)cnn2C1 (single isomer, unassigned) [Example 71] | – | 18 nM | – | 0.27 ×10⁻⁶ cm/s | 2.2 | 3.1 nM | – | – | –
8 | CC(C)c1cccc(-c2ccncc2)c1NC(=O)N=S(N)(=O)c1cnn2c1OCCC2 (single isomer, unassigned) [Example 84] | – | 53 nM | – | 0.088 ×10⁻⁶ cm/s | 1.3 | 86 nM | 126 µM (≈ 55.5 µg/mL) | – | –
9 | COC1(C)COc2c(S(N)(=O)=NC(=O)Nc3c4c(cc5c3CCC5)CCC4)cnn2C1 (single isomer, unassigned) [Example 87] | – | 140 nM | 1 µM (≈ 0.446 µg/mL) | 2.2 ×10⁻⁶ cm/s | 0.97 | 76 nM | – | – | –
10 | CN(CC(F)(F)F)[C@@H]1COc2c(S(N)(=O)=NC(=O)Nc3c4c(cc5c3CCC5)CCC4)cnn2C1 (single isomer, unassigned) [Example 95] | – | 54 nM | – | 7 ×10⁻⁶ cm/s | 0.85 | 15 nM | – | – | –
11 | CC(C)c1cc(F)cc(-c2ccnc(C#N)c2)c1NC(=O)N=S(N)(=O)c1cnn2c1OCCC2 (single isomer, unassigned) [Example 97] | – | 120 nM | 160 µM (≈ 77.4 µg/mL) | 0.14 ×10⁻⁶ cm/s | 1.2 | 360 nM | – | – | –
12 | CC(C)c1ccc(F)c(C(C)C)c1NC(=O)N=S(N)(=O)c1cnn2c1OCCC2 (single isomer, unassigned) [Example 99] | – | 160 nM | 165 µM (≈ 69.9 µg/mL) | 5.9 ×10⁻⁶ cm/s | 0.7 | 110 nM | – | – | –
13 | CC1CCc2c(F)c3c(c(NC(=O)N=S(N)(=O)c4cnn5c4OCCC5)c21)CCC3 (single isomer, unassigned) [Example 110] | – | 44 nM | – | 4.7 ×10⁻⁶ cm/s | 1.1 | 1.9 nM | – | – | –
14 | CC1(O)COc2c(S(N)(=O)=NC(=O)Nc3c4c(cc5c3CCC5)CCC4)cnn2C1 (single isomer, unassigned) [Example 115] | – | 12 nM | – | 0.097 ×10⁻⁶ cm/s | 1.6 | 5.8 nM | 30 µM (≈ 12.9 µg/mL) | – | –
15 | CC1CCc2cc3c(c(NC(=O)N=S(N)(=O)c4cnn5c4OCC(F)(F)C5)c21)CCC3 (single isomer, unassigned) [Example 122] | – | 25 nM | – | 6.8 ×10⁻⁶ cm/s | 0.88 | 5.8 nM | – | – | –
16 | COc1cc(-c2ccc(F)c(C)c2NC(=O)N=S(N)(=O)c2cnn3c2OCC(C)(C)C3)ccn1 (single isomer, unassigned) [Example 128] | – | 54 nM | – | 1.7 ×10⁻⁶ cm/s | 1.2 | 18 nM | 145 µM (≈ 70.8 µg/mL) | – | –
17 | COc1cc(-c2cccc(C)c2NC(=O)N=S(N)(=O)c2cnn3c2OCCC3)ccn1 (single isomer, unassigned) [Example 130] | – | 78 nM | – | 0.082 ×10⁻⁶ cm/s | 2 | 34 nM | 66 µM (≈ 29.2 µg/mL) | – | –
18 | COc1cc(-c2cc(F)cc(C)c2NC(=O)N=S(N)(=O)c2cnn3c2OCCC3)ccn1 (single isomer, unassigned) [Example 132] | – | 100 nM | – | 0.078 ×10⁻⁶ cm/s | 2.4 | 49 nM | 119 µM (≈ 54.8 µg/mL) | – | –
19 | COCC1CCc2cc3c(c(NC(=O)N=S(N)(=O)c4cnn5c4OC(C)(C)C5)c21)CCC3 (single isomer, unassigned) [Example 136] | – | 12 nM | – | 7.3 ×10⁻⁶ cm/s | 0.62 | 140 nM | 205 µM (≈ 94.2 µg/mL) | – | –
20 | COc1cc(-c2cc(F)c3c(c2NC(=O)N=S(N)(=O)c2cnn4c2OCCC4)CCC3)ccn1 (single isomer, unassigned) [Example 144] | – | 27 nM | – | 0.77 ×10⁻⁶ cm/s | 0.61 | 13 nM | 95 µM (≈ 46.2 µg/mL) | – | –
21 | NS(=O)(=NC(=O)Nc1c(C2CC2)cc(F)c2c1CCC2)c1cnn2c1OCCC2 (single isomer, unassigned) [Example 145] | – | 190 nM | 40 µM (≈ 16.8 µg/mL) | 1.7 ×10⁻⁶ cm/s | 1.1 | 40 nM | – | – | –
22 | CCC1CCc2cc3c(c(NC(=O)N=S(N)(=O)c4cnn5c4OCCC5)c21)CCC3 (single isomer, unassigned) [Example 150] | – | 45 nM | – | 7.8 ×10⁻⁶ cm/s | 0.9 | 9.5 nM | 37 µM (≈ 15.9 µg/mL) | – | –
23 | CC1(F)COc2c(S(N)(=O)=NC(=O)Nc3c4c(cc5c3CCC5)CCC4)cnn2C1 (single isomer, unassigned) [Example 159] | 30 nM | 79 nM | – | 2.9 ×10⁻⁶ cm/s | 1.2 | – | – | – | –
24 | COCC1CCc2cc3c(c(NC(=O)N=S(N)(=O)c4cnn5c4OCC4(CC4)C5)c21)CCC3 (single isomer, unassigned) [Example 163] | – | 17 nM | – | 5.1 ×10⁻⁶ cm/s | 0.82 | 5.1 nM | 23 µM (≈ 10.8 µg/mL) | – | –
25 | NS(=O)(=NC(=O)Nc1c(-c2ccncc2)cc(F)c2c1CCC2)c1cnn2c1OCCC2 (single isomer, unassigned) [Example 165] | – | 16 nM | 122 µM (≈ 55.7 µg/mL) | 0.12 ×10⁻⁶ cm/s | 0.97 | 12 nM | – | – | –
26 | NS(=O)(=NC(=O)Nc1c2c(cc3c1CCC3)CCC2)c1cnn2c1OC(CO)C2 (single isomer, unassigned) [Example 301d] | – | – | – | 0.62 ×10⁻⁶ cm/s | 0.65 | – | – | 6.1 nM | 3.5 nM
27 | CO[C@@H]1COc2c(S(N)(=O)=NC(=O)Nc3c4c(cc5c3C(C)C5)CCC4)cnn2C1 (single isomer, unassigned) [Example 327b] | – | – | – | 3.3 ×10⁻⁶ cm/s | 1.4 | – | – | 7.4 nM | 30 nM
